Common to all, as to format: cell-based, human
Experiment [1] relates to A431 cells. Description: UniGEM V cDNA array expression profile of A431 cells. The note with it: 3 μM, 24 hours, RNA from Experiment 1. The procedure:
The following tissue culture cells are chosen because of their EGFR expression status (Table 1). EGFR expression is measured by Western blotting, using anti-EGFR monoclonal antibodies from Transduction Labs (Lexington, Ky.). The cell lines are obtained from the ATCC (Rockville, […].). The cells are cultured in 5% CO2 at 37° C.
(§1) 20 million tissue culture cells (about 80% confluent) or 200 million WBCs are incubated for 2 or 24 h in culture medium containing 3 μM of an EGFR tyrosine kinase inhibitor or 0.03% DMSO. Total RNA from cell pellet is isolated using the RNeasy kit (Qiagen). mRNA is isolated using the oligotex mRNA purification kit (Qiagen). The quality of the obtained mRNA is tested by real time RT-PCR using beta-Actin primers (PE Applied Biosystems) with an amplicon size of 300 base pairs (bp). The total RNA is used as a reference to calculate the amount of mRNA-enrichment in the oligotex purified samples.
(§2) Probes for the UniGEM hybridization are synthesized by Incyte Genomics (Palo Alto, Calif., USA). For each probe 200 ng mRNA (50 ng/μl) is shipped in dry ice. The results are analyzed using the Expressionist Software Package provided by GeneData.
(§3) Expression profiles (UniGEM V arrays) of 4 tumor cell lines with different EGFR expression status (A431, NCI-H596, NCI-H520 and MDA-MB-468) and of WBCs upon exposure of cells to 3 μM of COMPOUND A for 2 or 24 h are analyzed. As control, cells treated with DMSO for the same time period are used. […] The cDNA array hybridization is repeated with the UniGEM 1 array using the same mRNA (Table 3).

The subject of experiment [2] is NCI-H520. In words: Western blot of clusterin induction in NCI-H520 cells. To be noted: NCI-H520 cells (do not express EGFR), 300 nM, 24 h, vs 0.03% DMSO. The procedure: An EGFR tyrosine kinase inhibitor is dissolved in DMSO to obtain a 10 mM stock solution. The stock solution is further diluted in culture medium to final concentrations of 10 nM to 3 μM. 3.5 million cells/100 mm dish/12 ml culture medium are incubated for 24 h in 5% CO2 at 37° C. The medium is replaced with medium containing the EGFR tyrosine kinase inhibitor or DMSO. Cells are incubated for 4 to 32 h. The frozen pellets are lysed in 500 μl of lysis buffer (50 mM Tris-HCl pH 7.5, 1% Sodium Dodecyl Sulfate (SDS)). To shear genomic DNA, the cell lysates are processed in a FastPrep instrument for 20 sec at a speed rating of 4, using the green […] tubes (Bio101#6040-6010). Protein concentrations are determined according to the PIERCE-method (BCA Protein Assay, Reagent A and B). Protein concentration of lysates is adjusted to 1 μg/μl with lysis buffer. 4 parts of cell lysates are mixed with 1 part of 5 fold concentrated Laemmli buffer, the lysates are stored at -20° C. 40 μl of cell lysate is heated for 3 min to 95° C. and directly loaded on to 10% or 15% SDS-PAGE gels. The gels are run at 130 V for 90 min under standard conditions. The separated proteins are semi-dry blotted on to a PVDF membrane (Immobilon-P, Millipore #IPVH 202 00) for 70 min with 45 mA per blot. […]
A general note: In western blotting, separated proteins are transferred to a membrane and probed.

Experiment [3] deals with A431, NCI-H596, NCI-H520, MDA-MB-468 and WBCs. In words: UniGEM V array 2 h expression profiles of 4 tumor cell lines and WBCs. To be noted: 3 μM, cut off set at 3, vs DMSO, data not shown. The procedure:
as §1, §2, §3

Structures are written as SMILES.

On to `C[C@@H](Nc1ncnc2[nH]c(-c3ccc(O)cc3)cc12)c1ccccc1` [COMPOUND A, (R)-6-(4-hydroxy-phenyl)-4-[(1-phenyl-ethyl)-amino]-7H-pyrrolo[2,3-d]pyrimidine], for which, in experiment [1], the “Gene induction, Micro Array UniGEM V: Acute phase serum amyloid A protein” value turned out to be 3.3; the “Gene induction, Micro Array UniGEM V: Cathepsin H” value turned out to be 2.4; the “Gene induction, Micro Array UniGEM V: Complement component 3 (C3)” value stood at 3.3; the “Gene induction, Micro Array UniGEM V: Complement cytolysis inibitor (Clusterin)” value worked out at 6.6. In experiment [1], the “Gene induction, Micro Array UniGEM V: DNA binding protein inhibitor ID-3” value was determined as 2.6; the “Gene induction, Micro Array UniGEM V: Extracellular protein S1-5” value is 2.2; the “Gene induction, Micro Array UniGEM V: TGF-beta induced gene” value was found to be 2.7; the “Gene induction, Micro Array UniGEM V: TRAIL” value amounted to 4.0. Moreover, in experiment [1], the “Gene induction, Micro Array UniGEM V: VAC-beta (annexin VIII)” value was 2.2. Moreover, the “Clusterin induction, Western blot (FIG. 4)” value in experiment [2] was “no detectable clusterin levels”. For the same compound, in experiment [3], the “2 h expression profiles, induced and repressed genes” value is “almost no induced genes and only few repressed genes”; the “2 h expression profiles: early growth response protein 1” value is “repression in two cell lines and WBCs”.

These data come from patent US20040043403A1, “Process for determining the biological activity of epidermal growth factor receptor tyrosine kinase inhibitors” (priority 2000, published 2004).
